#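 Compound exposure: 48 hours, 5 concentrations, 96-well plates. At the GI50, growth is halved.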 The source made the active and inactive calls. No stated cut-off is given here; in the data, active = GI50 up to about 1.1 µM and inactive = higher.
# What was measured:
# Assay in all cases: NCI tumour cell line growth inhibition, 48 h
# BT-549 = tested on: BT-549
# Hs-578T = tested on: Hs-578T
# DLD-1 = tested on: DLD-1
# DMS-273 = tested on: DMS-273
# HOP-18 = tested on: HOP-18
# SNB-78 = tested on: SNB-78
# XF498 = tested on: XF498
# LXFL 529 = tested on: LXFL 529
Structure (SMILES),GI50 (BT-549),GI50 (Hs-578T),also measured
COc1cc(CC(C)NC(C)=O)cc(OC)c1 (configuration not stated),> 100 µM (inactive),> 100 µM (inactive),
CC1=C(Br)C(=O)c2c(O)ccc(O)c2C1=O,0.71 µM (active),2.81 µM (inactive),
CC(=O)OC(OC(C)=O)c1c2ccccc2cc2ccccc12,14.9 µM (inactive),23.2 µM (inactive),
O=C(CNc1cccc(Cl)c1)Nn1c(-c2ccccc2)nc2ccccc2c1=O,2.16 µM (inactive),19.2 µM (inactive),
O=P1(Oc2ccc(Cl)cc2Cl)Oc2cc3ccccc3cc2O1,,,GI50 (DLD-1): 56.8 µM (inactive); GI50 (DMS-273): 59.6 µM (inactive); GI50 (HOP-18): 62.2 µM (inactive); GI50 (SNB-78): > 100 µM (inactive); GI50 (XF498): 33.1 µM (inactive)
CC(=O)Nc1ccccc1S(=O)(=O)c1c(-c2c(C)c(Cl)c(C)c(Cl)c2C)noc1C,33.9 µM (inactive),28.6 µM (inactive),
CC1=CC(=O)c2ccc(C)cc2C1=O [CHIMAPHILIN],11.6 µM (inactive),20.5 µM (inactive),
C=CCOC(=O)C1=C(CCC[C@@H](C)O[Si](C)(C)C(C)(C)C)N=C(N)N2[C@H](CCO)CC[C@@H]12,21.8 µM (inactive),,
CC1(C)CC(=O)c2c(nc3ccc4ccccc4c3c2-c2ccc(NC(=O)CCCC(=O)Nc3ccc(-c4c5c(nc6ccc7ccccc7c46)CC(C)(C)CC5=O)cc3)cc2)C1,> 100 µM (inactive),60.3 µM (inactive),
CN(C)c1ccc(/C=C/C(=O)O)cc1,,,GI50 (DLD-1): > 100 µM (inactive); GI50 (HOP-18): > 100 µM (inactive); GI50 (LXFL 529): > 100 µM (inactive); GI50 (SNB-78): > 100 µM (inactive); GI50 (XF498): > 100 µM (inactive)
CSCC[C@@H](NC(=O)[C@H](CC(C)C)NC(=O)C(Cc1cnc[nH]1)NC(=O)CNC(=O)[C@@H](NC(=O)[C@H](C)NC(=O)[C@H](Cc1c[nH]c2ccccc12)NC(=O)[C@H](CCC(N)=O)NC(=O)[C@@H](N)CC(N)=O)C(C)C)C(N)=O (some centres not stated),,,GI50 (DLD-1): > 100 µM (inactive); GI50 (DMS-273): > 100 µM (inactive); GI50 (HOP-18): > 100 µM (inactive); GI50 (SNB-78): > 100 µM (inactive); GI50 (XF498): > 100 µM (inactive)
COC(=O)C12CC(c3ccccc31)C1C(=O)OC(=O)C12 (configuration not stated),,,GI50 (DLD-1): > 100 µM (inactive); GI50 (DMS-273): > 100 µM (inactive); GI50 (LXFL 529): > 100 µM (inactive); GI50 (SNB-78): > 100 µM (inactive); GI50 (XF498): > 100 µM (inactive)
Nc1nc(N)c2ncn(Cc3ccccc3CO)c2n1,> 100 µM (inactive),> 100 µM (inactive),
COC(=O)c1ccc(/N=N/N(C)CO)cc1,,,GI50 (DLD-1): 98.6 µM (inactive); GI50 (DMS-273): 63.1 µM (inactive); GI50 (LXFL 529): 43.6 µM (inactive); GI50 (SNB-78): 32.5 µM (inactive); GI50 (XF498): 9.44 µM (inactive)
CC(=O)OCC1(CNc2nc(N)ncc2C#N)CC(CCc2ccccc2)C1 (configuration not stated),87.1 µM (inactive),23.9 µM (inactive),
O=C1N/C(=N/N=C/C(O)C(O)C(O)CO)N/C1=C\c1ccco1 (configuration not stated),> 100 µM (inactive),> 100 µM (inactive),
N#CC(OC1OC(COC2OC(CO)C(O)C(O)C2O)C(O)C(O)C1O)c1ccccc1 (configuration not stated),,,GI50 (DLD-1): > 225 µM (inactive); GI50 (DMS-273): > 225 µM (inactive); GI50 (HOP-18): > 225 µM (inactive); GI50 (SNB-78): > 225 µM (inactive); GI50 (XF498): > 225 µM (inactive)

Structure (SMILES),GI50 (BT-549),GI50 (Hs-578T),also measured
CC1SC(=O)SC1C (configuration not stated),,> 100 µM (inactive),
O=C1NC2(CCNCC2)Oc2ccccc21,> 100 µM (inactive),> 100 µM (inactive),
CC(Cc1ccc(Cl)cc1Cl)NO (configuration not stated),> 100 µM (inactive),80 µM (inactive),
CC(C)C(O)(C(=O)OCN1C(=O)C2C3C=CC(C2C1=O)C1C2C(=O)N(COC(=O)C(O)(C(C)C)C(C)O)C(=O)C2C31)C(C)O (configuration not stated),,> 100 µM (inactive),
CCOC(=O)c1ccc(/N=C2\SC(=S)N(c3ccc(F)cc3)\C2=N/c2ccc(C(=O)OCC)cc2)cc1,12.6 µM (inactive),13.9 µM (inactive),
Cc1cc(C)n(CCNCCn2nc(C)cc2C)n1,,,GI50 (DLD-1): > 100 µM (inactive); GI50 (DMS-273): > 100 µM (inactive); GI50 (LXFL 529): > 100 µM (inactive); GI50 (SNB-78): > 100 µM (inactive)
COC(=O)Cn1c(=O)oc2nc(-c3ccccc3)cc(C(F)(F)F)c21,> 100 µM (inactive),,
CCOC(=O)C(N=C(c1ccccc1)c1ccccc1)N(C(=O)OC(C)(C)C)C(=O)OC(C)(C)C (configuration not stated),,,GI50 (LXFL 529): 75.2 µM (inactive); GI50 (SNB-78): > 100 µM (inactive)
COc1ccc(-c2c(C#N)c(N)n(C3OCC(O)C(O)C3O)c(=S)c2C#N)cc1 (configuration not stated),> 100 µM (inactive),> 100 µM (inactive),
Cc1ccc(C)c(C2NC(=O)c3ccccc3N2)c1 (configuration not stated),5.25 µM (inactive),1.09 µM (active),
COc1cc(Nc2cnc3cc(F)c(F)cc3n2)cc(OC)c1OC,> 100 µM (inactive),63.2 µM (inactive),
COC(=O)[C@H]1C=NN[C@@H]1C(=O)N1[C@H]2CC3CC[C@@]2(CS1(=O)=O)C3(C)C,> 100 µM (inactive),> 100 µM (inactive),
CC(C)(C)OC(=O)NC(Cc1ccc([N+](=O)[O-])cc1)C(=O)NC(CCCCNC(=O)OCc1ccccc1)C(=O)ON1C(=O)CCC1=O (configuration not stated),> 100 µM (inactive),> 100 µM (inactive),
NCCCN(CCCCN(CCCN)C(=O)OCc1ccccc1)C(=O)OCc1ccccc1,> 100 µM (inactive),20.6 µM (inactive),
O=c1oc2ccc(Cl)cc2cc1-c1cn2cc(Cl)ccc2n1,15.1 µM (inactive),,
COc1ccc2c(O)c1-c1c(OC)ccc(c1O)SSc1ccc(OC)c(c1O)-c1c(OC)ccc(c1O)SS2,,54.8 µM (inactive),
CC1=C(C(=O)Nc2ccccc2)C2(CCCCC2)C(C#N)=C(SCC(=O)Nc2ccc(Br)cc2)N1,8.15 µM (inactive),3.57 µM (inactive),
